Among the data in doi:10.1101/2023.12.04.569845, “Identification of 4-(6-((2-methoxyphenyl)amino)pyrazin-2-yl)benzoic acids as CSNK2A inhibitors with antiviral activity and improved selectivity over PIM3” (bioRxiv, 2023) are ΔTm values, retold here.

Where two headings read alike, the source gives them in different places.

Test in all cases: biochemical
Holding throughout (parameters): Thermal shift (DSF, SYPRO Orange) Tm shift of recombinant kinase domains at 10 uM compound

For assay [1], the target named is CAMK2B (Homo sapiens, UniProt Q13554).
Assay [2] deals with T1, MER (Homo sapiens, UniProt Q12866).
T1 construct: gene MERTK
T1 sequence (Q12866 1-999): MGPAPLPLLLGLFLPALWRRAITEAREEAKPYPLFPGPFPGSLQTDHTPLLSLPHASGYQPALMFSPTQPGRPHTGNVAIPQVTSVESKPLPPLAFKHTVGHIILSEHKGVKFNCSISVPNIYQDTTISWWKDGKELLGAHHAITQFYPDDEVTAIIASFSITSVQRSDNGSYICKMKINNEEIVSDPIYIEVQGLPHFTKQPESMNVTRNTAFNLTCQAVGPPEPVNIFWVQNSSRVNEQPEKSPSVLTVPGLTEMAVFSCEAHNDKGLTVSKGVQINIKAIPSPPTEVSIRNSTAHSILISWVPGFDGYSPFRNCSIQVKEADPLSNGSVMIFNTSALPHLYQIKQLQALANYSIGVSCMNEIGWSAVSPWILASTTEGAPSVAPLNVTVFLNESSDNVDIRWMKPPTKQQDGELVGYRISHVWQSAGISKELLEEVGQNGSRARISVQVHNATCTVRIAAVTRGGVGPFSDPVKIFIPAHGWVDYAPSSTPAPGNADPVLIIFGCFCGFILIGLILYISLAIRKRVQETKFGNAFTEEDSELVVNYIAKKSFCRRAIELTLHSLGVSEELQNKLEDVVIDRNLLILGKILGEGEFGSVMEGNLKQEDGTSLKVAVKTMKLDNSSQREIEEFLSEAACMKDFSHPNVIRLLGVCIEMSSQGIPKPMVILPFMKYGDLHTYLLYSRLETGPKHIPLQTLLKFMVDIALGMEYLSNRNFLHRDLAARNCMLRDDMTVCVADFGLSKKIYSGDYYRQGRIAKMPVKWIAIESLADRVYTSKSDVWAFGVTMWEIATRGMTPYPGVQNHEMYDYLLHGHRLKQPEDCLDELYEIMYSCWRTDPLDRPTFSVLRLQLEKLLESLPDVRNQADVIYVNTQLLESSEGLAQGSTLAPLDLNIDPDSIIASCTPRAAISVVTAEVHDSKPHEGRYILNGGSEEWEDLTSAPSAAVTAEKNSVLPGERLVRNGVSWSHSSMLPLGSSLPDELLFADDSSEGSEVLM

For assay [3], the target named is T2, MSSK1 (Homo sapiens, UniProt Q9UPE1).
T2 construct: gene SRPK3

The target of assay [4] is T3, PHKg2 (Homo sapiens, UniProt P15735).
T3 construct: kinase domain
T3 sequence (P15735 1-406): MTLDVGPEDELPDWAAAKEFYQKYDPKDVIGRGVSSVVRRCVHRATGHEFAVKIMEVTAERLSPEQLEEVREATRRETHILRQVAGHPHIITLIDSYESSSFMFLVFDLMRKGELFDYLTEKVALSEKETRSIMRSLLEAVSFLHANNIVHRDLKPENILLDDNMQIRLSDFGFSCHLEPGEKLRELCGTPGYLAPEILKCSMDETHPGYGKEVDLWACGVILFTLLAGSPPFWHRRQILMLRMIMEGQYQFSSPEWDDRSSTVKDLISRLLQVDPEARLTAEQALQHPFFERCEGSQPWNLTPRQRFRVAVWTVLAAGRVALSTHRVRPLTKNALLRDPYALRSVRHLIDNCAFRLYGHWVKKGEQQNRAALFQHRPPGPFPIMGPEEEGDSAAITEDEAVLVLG

Assay [5] addresses T4, TTK (Homo sapiens, UniProt P33981).
T4 sequence (P33981 1-857): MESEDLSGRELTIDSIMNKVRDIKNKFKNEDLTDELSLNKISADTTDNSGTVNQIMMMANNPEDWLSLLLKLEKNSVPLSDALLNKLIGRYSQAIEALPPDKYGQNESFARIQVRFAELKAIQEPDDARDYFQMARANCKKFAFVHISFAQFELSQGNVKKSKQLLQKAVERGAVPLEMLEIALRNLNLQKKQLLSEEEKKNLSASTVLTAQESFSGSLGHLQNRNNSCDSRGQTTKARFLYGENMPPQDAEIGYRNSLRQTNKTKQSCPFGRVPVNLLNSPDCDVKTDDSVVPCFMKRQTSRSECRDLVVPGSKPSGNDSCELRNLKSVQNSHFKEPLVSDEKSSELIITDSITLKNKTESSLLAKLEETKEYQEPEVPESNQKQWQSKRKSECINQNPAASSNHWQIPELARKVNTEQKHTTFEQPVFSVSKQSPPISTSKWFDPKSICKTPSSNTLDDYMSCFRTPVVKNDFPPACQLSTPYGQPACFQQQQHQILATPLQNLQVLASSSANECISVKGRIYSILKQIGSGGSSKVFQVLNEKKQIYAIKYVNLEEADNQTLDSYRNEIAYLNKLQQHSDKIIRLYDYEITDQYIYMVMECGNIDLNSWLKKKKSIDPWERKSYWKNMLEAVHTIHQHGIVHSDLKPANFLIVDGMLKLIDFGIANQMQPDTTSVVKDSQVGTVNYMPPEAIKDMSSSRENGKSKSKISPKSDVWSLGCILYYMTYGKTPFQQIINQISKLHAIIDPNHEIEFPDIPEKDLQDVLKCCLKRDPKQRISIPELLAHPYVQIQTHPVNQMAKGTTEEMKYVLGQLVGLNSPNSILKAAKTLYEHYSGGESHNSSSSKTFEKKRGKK

T2 sequence (Q9UPE1 whole entry): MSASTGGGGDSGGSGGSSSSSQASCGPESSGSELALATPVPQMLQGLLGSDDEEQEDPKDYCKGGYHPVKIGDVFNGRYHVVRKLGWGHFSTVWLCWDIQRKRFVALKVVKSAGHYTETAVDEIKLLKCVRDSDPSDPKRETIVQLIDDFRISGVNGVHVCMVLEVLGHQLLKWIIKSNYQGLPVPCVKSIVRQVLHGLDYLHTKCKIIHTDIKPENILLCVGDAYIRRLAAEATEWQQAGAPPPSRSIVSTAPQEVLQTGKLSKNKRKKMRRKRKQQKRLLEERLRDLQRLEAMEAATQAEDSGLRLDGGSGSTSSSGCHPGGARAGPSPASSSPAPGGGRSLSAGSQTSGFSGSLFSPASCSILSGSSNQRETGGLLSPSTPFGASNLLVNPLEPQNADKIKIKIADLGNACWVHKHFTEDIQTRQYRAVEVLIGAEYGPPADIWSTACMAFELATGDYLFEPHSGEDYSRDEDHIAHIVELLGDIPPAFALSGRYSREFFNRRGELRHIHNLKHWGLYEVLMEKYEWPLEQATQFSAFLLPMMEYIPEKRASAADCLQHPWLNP
Chain of CAMK2B (Q13554 whole entry): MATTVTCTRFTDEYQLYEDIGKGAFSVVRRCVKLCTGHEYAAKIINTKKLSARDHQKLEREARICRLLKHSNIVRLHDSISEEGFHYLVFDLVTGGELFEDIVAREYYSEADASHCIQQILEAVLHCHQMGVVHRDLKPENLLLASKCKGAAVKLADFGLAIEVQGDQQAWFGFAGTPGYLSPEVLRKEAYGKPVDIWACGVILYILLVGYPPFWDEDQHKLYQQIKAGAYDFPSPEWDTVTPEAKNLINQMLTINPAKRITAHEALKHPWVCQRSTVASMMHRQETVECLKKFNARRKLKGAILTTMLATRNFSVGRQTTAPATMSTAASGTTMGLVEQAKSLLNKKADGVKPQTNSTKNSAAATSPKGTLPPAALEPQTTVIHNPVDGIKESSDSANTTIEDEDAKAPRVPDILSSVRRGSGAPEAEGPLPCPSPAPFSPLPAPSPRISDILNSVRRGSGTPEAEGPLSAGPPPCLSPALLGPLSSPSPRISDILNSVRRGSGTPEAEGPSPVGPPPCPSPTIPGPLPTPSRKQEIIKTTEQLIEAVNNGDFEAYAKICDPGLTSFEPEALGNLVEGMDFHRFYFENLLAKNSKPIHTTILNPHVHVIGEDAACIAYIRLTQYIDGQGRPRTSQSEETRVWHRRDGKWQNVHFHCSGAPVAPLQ

`CC(C)Oc1ccc2ccn(-c3cncc(-c4ccc(C(=O)O)cc4)n3)c2c1` [6c]: the ΔTm at 10 µM in assay [1] (read-out: 6c) is 2 °C; in assay [2] (read-out: 6c) it was 3 °C; in assay [3] (read-out: 6c) it was 1 °C; in assay [4] (read-out: 6c), 5 °C; in assay [5] (read-out: 6c), 1 °C.
For the molecule `COc1ccc(OC(C)C)cc1Nc1cncc(-c2ccc(C(=O)O)cc2)n1` [7c], the ΔTm at 10 µM in assay [1] (read-out: 7c) amounted to 1 °C; in assay [2] (read-out: 7c) it was 3 °C; in assay [3] (read-out: 7c) it was 1 °C; in assay [4] (read-out: 7c), 3 °C; in assay [5] (read-out: 7c) it was 0 °C.
As for `CC(C)Nc1ccc2cnn(-c3cncc(-c4ccc(C(=O)O)cc4)n3)c2c1` [compound 2, 2], the ΔTm at 10 µM in assay [1] (read-out: 2) is 2 °C; in assay [2] (read-out: 2), 3 °C; in assay [3] (read-out: 2) it was 3 °C; in assay [4] (read-out: 2), 8 °C; in assay [5] (read-out: 2), 1 °C.
